# Experimental data: BindingDB's records for patent US20240066136 (Cullgen (Shanghai), 2024)
# Target: DNA damage-binding protein 1 (Homo sapiens, UniProt Q16531)
# Assay: Surface Plasmon Resonance (SPR) Binding Assay
# Protocol: Surface plasmon resonance (SPR) binding assay. All SPR studies were performed on a Biacore X100 plus or T200 instrument (GE Healthcare). Immobilization of purified His-DDB1 was carried out at 25° C. using a CM5 sensor chip. The surface was pre-equilibrated in HBS-EP running buffer (10 mM HEPES, pH7.4, 150 mM NaCl, 3 mM EDTA, 0.05% P20), then activated with EDC/NHS. His-DDB1 proteins were immobilized by amine coupling to a density of 11,000-13,000 resonance units (RUs) on flow cell FC2, whereas flow cell FC1 was used as reference. Both DDB1 immobilized and reference surfaces were deactivated with 1M ethanolamine.
# DNA damage-binding protein 1, sequence (Q16531 whole entry): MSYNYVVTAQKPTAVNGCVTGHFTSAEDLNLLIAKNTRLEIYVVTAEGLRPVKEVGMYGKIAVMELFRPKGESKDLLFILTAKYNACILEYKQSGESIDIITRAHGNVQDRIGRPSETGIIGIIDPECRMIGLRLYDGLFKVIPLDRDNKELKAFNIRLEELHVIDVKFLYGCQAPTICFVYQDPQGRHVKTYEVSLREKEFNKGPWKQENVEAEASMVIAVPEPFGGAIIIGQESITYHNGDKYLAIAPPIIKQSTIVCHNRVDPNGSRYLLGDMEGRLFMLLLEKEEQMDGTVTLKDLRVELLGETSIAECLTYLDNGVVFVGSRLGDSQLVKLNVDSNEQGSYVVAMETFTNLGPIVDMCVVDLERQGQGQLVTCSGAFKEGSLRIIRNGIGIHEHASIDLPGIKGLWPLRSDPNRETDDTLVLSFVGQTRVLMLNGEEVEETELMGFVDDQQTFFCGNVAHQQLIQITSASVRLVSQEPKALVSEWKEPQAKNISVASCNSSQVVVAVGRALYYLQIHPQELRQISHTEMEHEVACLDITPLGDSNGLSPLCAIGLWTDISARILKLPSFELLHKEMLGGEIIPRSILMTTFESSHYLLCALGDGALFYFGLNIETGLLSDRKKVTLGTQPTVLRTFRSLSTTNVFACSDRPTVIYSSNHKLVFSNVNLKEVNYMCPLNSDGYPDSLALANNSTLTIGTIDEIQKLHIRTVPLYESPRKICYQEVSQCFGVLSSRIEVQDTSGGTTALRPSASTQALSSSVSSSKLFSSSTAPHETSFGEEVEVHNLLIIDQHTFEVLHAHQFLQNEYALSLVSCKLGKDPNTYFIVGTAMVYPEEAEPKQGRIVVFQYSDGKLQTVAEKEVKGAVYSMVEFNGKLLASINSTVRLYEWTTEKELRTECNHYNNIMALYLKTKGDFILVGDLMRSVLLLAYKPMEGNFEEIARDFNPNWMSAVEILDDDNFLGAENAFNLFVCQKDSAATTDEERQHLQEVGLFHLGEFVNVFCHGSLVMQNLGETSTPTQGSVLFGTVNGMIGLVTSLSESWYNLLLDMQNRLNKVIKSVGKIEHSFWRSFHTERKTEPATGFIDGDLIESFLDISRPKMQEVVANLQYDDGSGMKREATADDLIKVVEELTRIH
row,Compound,Kd
1,"CCCC(=O)Nc1ccc(C(=O)Nc2ncc([N+](=O)[O-])s2)c(NC(C)=O)c1 [US20240066136,Compound B-146]",20 to 100 µM
2,"H-NFTSRLNRRASFP-OH [US20240066136,Peptide 6]",< 20 µM
3,"CC(=O)Nc1cc(C(=O)NCCCCCCN)ccc1C(=O)Nc1nc(C)c([N+](=O)[O-])s1 [US20240066136,Compound BL-4]",> 0.1 µM
4,"CC[C@H](C)[C@H](N)C(=O)N[C@@H](CC(C)C)C(=O)N1CCC[C@H]1C(=O)N[C@@H](CCCCN)C(=O)N[C@H](C(=O)N[C@@H](CC(C)C)C(=O)N[C@@H](Cc1cnc[nH]1)C(=O)N[C@@H](CCCCN)C(=O)N[C@@H](CCCNC(=N)N)C(=O)N[C@H](C(=O)N[C@@H](CC(C)C)C(=O)NCC(=O)N[C@@H](CC(C)C)C(=O)O)[C@@H](C)O)C(C)C [US20240066136,Peptide 3]",< 20 µM
5,"CC[C@H](C)[C@H](N)C(=O)N[C@@H](CC(C)C)C(=O)N1CCC[C@H]1C(=O)N[C@@H](CCCCN)C(=O)N[C@H](C(=O)N[C@@H](CC(C)C)C(=O)N[C@@H](Cc1cnc[nH]1)C(=O)N[C@@H](CCCCN)C(=O)N[C@@H](CCCNC(=N)N)C(=O)N[C@H](C(=O)N[C@@H](CC(C)C)C(=O)NCC(=O)N[C@@H](CC(C)C)C(=O)N[C@@H](CO)C(=O)O)[C@@H](C)O)C(C)C [US20240066136,Peptide 1]",< 20 µM
6,"CCCC(=O)Nc1ccc(C(=O)Nc2ncc([N+](=O)[O-])s2)c(OC(=O)CCC)c1 [US20240066136,Compound B-24]",in the range around 60 µM
7,"H-KVLHKRTLG-OH [US20240066136,Peptide 5]",< 20 µM
8,"Cc1nc(NC(=O)c2ccccc2NC(=O)CCOCCOCCCOCCN)sc1[N+](=O)[O-] [US20240066136,Compound BL-2]",in the range around 60 µM
9,"NCCOCCCOCCOCCC(=O)Nc1ccccc1C(=O)Nc1ncc([N+](=O)[O-])s1 [US20240066136,Compound BL-3]",in the range around 60 µM
10,"H-ILPKVWHKRELGLS-OH [US20240066136,Peptide 2]",< 20 µM
11,"H-ILPKVLHKRTFGL-OH [US20240066136,Peptide 4]",< 20 µM
